Test results reported in paper PMC12152883, “Bile acids inhibit equilibrative adenosine transport to alter adenosine receptor signaling in cholestasis” (The Journal of Biological Chemistry, 2025).
Several values for one entry are separate records, joined by “and”; a condition that tells them apart may be missing. Equal entries are not always repeated.

Experiments:
[1] = target: T1, ENT2 (Homo sapiens, UniProt Q14542); experiment: BA transport by ENT2-injected oocytes quantified by LC-MS/MS; format: cell-based; parameters: expressed in transfected cells; host or cells: Xenopus laevis oocytes injected with in vitro-transcribed capped mRNA from pOX-hENT2; details: pH 7.4, p < 0.001 compared with water-injected oocytes
T1 sequence (Q14542 1-456): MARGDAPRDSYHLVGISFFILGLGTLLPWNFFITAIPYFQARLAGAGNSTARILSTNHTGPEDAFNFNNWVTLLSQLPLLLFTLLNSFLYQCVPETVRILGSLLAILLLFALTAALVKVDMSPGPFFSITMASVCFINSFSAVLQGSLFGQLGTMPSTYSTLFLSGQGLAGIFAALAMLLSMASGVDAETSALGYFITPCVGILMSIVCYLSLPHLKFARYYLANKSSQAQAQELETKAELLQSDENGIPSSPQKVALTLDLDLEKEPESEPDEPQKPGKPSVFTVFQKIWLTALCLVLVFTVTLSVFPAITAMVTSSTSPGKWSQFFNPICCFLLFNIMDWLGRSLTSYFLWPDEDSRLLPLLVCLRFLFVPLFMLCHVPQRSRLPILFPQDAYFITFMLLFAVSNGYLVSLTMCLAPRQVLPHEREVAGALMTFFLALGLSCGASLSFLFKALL
Protocol: Therefore, we studied several different BAs and used a liquid chromatography–tandem mass spectrometry (LC‒MS/MS) method to quantify the transport activity of H2O-injected and ENT2 mRNA-injected oocytes using TCA as a positive control. […] We subsequently tested the ability of ENT2 to transport BAs at different physiological pH values ranging from pH 5.5 to pH 7.4 by varying the pH of the transport buffers in which the assay was conducted.
The mass spectrometric validation of the transport of all metabolites was performed with oocytes using a previously reported method ([24]). […] After an incubation at 4 °C for 24 h, the samples were centrifuged at 20,000g for 10 min, and the supernatants were collected. The samples (10 μl) were injected into a Thermo Scientific Vanquish UPLC system interfaced with a Thermo Scientific TSQ Quantiva triple-stage quadrupole mass spectrometer equipped with an H-ESI ion source. MS detection was conducted in negative ionization mode, and the transitions monitored for each metabolite are listed in Sup. Table S2. The operational mass spectrometric parameters included a capillary voltage of 4.5 kV; sheath gas of 35 arbitrary units; auxiliary gas of 10 arbitrary units; sweep gas of two arbitrary units; ion transfer tube temperature of 350 °C; vaporizer temperature of 450 °C; dwell time of 50 ms per transition; collision energy of 5 V; and collision-induced dissociation gas of 1.5 mTorr. Chromatographic separation was performed on a Kinetex […] (100 × 2.1 mm; 1.7 μm particle size) from Phenomenex. The mobile phase consisted of solvent A: water (0.1% formic acid) and solvent B: acetonitrile (0.1% formic acid). The flow rate was set at 0.3 ml/min, and the autosampler was maintained at 4 °C throughout the analysis.

[2] = target: T2, ENT1 (Homo sapiens, UniProt Q99808); experiment: Inhibition of 3H-nucleoside influx by BAs in ENT1-expressing Xenopus oocytes; format: cell-based; details: 3H-Ado 20 μM, sodium-free buffer; for IC50: read-out: ENT1 IC50 (Ado uptake); for ENT1 % uptake inhibition (Ado): BA 100 μM
T2 construct: The complete ORF of ENT1 (amplified using forward primer); expressed in transfected cells; host or cells: Xenopus laevis oocytes injected with in vitro-transcribed capped mRNA from pOX-hENT1
T2 sequence (Q99808 1-456): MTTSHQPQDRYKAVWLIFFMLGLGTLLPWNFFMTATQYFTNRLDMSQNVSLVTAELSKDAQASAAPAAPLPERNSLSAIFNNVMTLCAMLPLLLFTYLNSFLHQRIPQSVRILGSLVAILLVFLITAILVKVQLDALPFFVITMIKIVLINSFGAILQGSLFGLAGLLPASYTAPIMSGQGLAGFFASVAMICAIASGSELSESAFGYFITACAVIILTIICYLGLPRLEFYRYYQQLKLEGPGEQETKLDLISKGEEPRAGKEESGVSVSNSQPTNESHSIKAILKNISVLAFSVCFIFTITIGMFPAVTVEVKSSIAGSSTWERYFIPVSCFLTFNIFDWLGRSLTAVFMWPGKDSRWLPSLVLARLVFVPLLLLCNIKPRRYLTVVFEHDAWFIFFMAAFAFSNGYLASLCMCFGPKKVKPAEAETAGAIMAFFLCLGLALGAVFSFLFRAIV
Text: (§1) We expressed individual ENTs (ENT1, ENT2, and ENT3) in X. laevis oocytes (as described above) and analyzed the Ado influx from each of the ENTs in the presence of different BAs to better understand whether the inhibition profiles differ across human ENTs. […] We also conducted an analysis of the concentration-dependent inhibition of Ado transport to estimate the IC50 values of the BAs (Fig. 4, D–F and Table 2).
(§2) Inhibition of Ado influx in H2O- and ENT-injected oocytes by treatment with different BAs at 100 μM. D–F, concentration-dependent inhibition of Ado influx in ENT-injected oocytes by different BAs. The bars represent the mean ± SD (n = 8–12 oocytes). A representative experiment from 3 to 5 independent experiments is presented. Statistical analysis was performed using one-way ANOVA with Dunnett’s multiple comparisons test; ∗p < 0.032, ∗∗p < 0.0021, ∗∗∗∗p < 0.0001.
(§3) The generated pOX expression constructs were linearized with either the Not1 or Sac1 restriction enzymes. The digested products were purified via phenol‒chloroform extraction. The mRNAs were synthesized using mMESSAGE mMACHINE (Ambion) transcription kits according to the manufacturer’s instructions. The mRNAs were purified via lithium precipitation. Oocytes were procured from Ecocyte. Prior to experiments, procured oocytes were defolliculated by treating with collagenase A-OR II solution followed by washing with Barth’s solution. Following microscopic verification, selected oocytes were incubated to recover overnight at 25 °C in a shaker incubator. Fifty nanoliters (400–800 ng/μl) of equal amounts of mRNAs were injected into defolliculated oocytes the next day. Expression of plasmids was analyzed after RNA isolation from oocyte extracts and conducting qPCR analysis with gene-specific primers as described earlier ([30]). The injected oocytes were incubated at 15 °C for 24 h before transport assays were performed. […] Uptake was terminated by washing the oocytes three times with arrest buffer containing 20 mM uridine. Individual oocytes were shaken overnight in 10% SDS for complete dissolution, and then the radioactivity was quantified with a Beckman liquid scintillation counter. The data are presented as the mean ± SD (n = 8–12 oocytes). A representative experiment from 3 to 5 independent experiments is presented.

[3] = target: T1, ENT2; experiment: Inhibition of 3H-nucleoside influx by BAs in ENT2-expressing Xenopus oocytes; format: cell-based; parameters: expressed in transfected cells; host or cells: Xenopus laevis oocytes injected with in vitro-transcribed capped mRNA from pOX-hENT2; details: for IC50 / ENT2 % uptake inhibition (Ado): 3H-Ado 20 μM, sodium-free buffer; for IC50: read-out: ENT2 IC50 (Ado uptake)
Text: as §1, §2, §3

[4] = target: T3, ENT3 (Homo sapiens, UniProt Q9BZD2); experiment: Inhibition of 3H-nucleoside influx by BAs in ENT3-expressing Xenopus oocytes; format: cell-based; details: for IC50 / ENT3 % uptake inhibition (Ado): 3H-Ado 20 μM, sodium-free buffer; for IC50: read-out: ENT3 IC50 (Ado uptake)
T3 construct: plasma membrane–directed ENT3 with a truncated N-terminus (that harbors lysosomal targeting motif); expressed in transfected cells; host or cells: Xenopus laevis oocytes injected with in vitro-transcribed mRNA from pOX-Δ36hENT3
T3 sequence (Q9BZD2 with tags, fused parts or gaps): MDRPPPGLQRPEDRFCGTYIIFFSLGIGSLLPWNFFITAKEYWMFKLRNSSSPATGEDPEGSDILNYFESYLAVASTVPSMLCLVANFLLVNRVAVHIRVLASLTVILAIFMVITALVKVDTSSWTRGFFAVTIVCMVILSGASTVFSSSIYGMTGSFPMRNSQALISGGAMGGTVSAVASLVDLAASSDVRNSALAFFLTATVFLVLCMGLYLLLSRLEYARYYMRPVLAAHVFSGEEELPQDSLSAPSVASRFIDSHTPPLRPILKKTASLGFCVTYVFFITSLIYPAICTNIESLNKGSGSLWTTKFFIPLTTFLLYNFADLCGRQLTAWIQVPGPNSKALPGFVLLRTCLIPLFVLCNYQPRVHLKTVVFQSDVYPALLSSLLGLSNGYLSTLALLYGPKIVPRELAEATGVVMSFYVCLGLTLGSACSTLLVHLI
Text: as §1, §2, §3

[5] = target: T1, ENT2; experiment: Inhibition of 3H-CA transport by ENT2 in oocytes by nucleoside transporter inhibitors; format: cell-based; parameters: expressed in transfected cells; host or cells: Xenopus laevis oocytes injected with in vitro-transcribed capped mRNA from pOX-hENT2; details: inhibitor at 10 μM (Fig. 2D legend 100 μM), pH 7.4
Protocol: Next, we asked whether the transport patterns of the above BAs mediated by ENT2 are similar to those of nucleoside transport in terms of pharmacological inhibition or pH-dependent properties.
Oocytes were procured from Ecocyte. Prior to experiments, procured oocytes were defolliculated by treating with collagenase A-OR II solution followed by washing with Barth’s solution. Following microscopic verification, selected oocytes were incubated to recover overnight at 25 °C in a shaker incubator. Fifty nanoliters (400–800 ng/μl) of equal amounts of mRNAs were injected into defolliculated oocytes the next day. […] The injected oocytes were incubated at 15 °C for 24 h before transport assays were performed. The uptake of radiolabeled substrates was measured after a 30 min incubation in transport buffer (100 mM NaCl, 2 mM KCl, 1 mM CaCl2, 1 mM MgCl2, and 10 mM Hepes, pH 7.4) at room temperature. Uptake was terminated by washing the oocytes three times with arrest buffer containing 20 mM uridine. Individual oocytes were shaken overnight in 10% SDS for complete dissolution, and then the radioactivity was quantified with a Beckman liquid scintillation counter. The data are presented as the mean ± SD (n = 8–12 oocytes). A representative experiment from 3 to 5 independent experiments is presented.

[6] = target: ENT2; details: classical nucleoside transporter inhibitors; no reference given; cited from earlier work
[7] = target: ENT1; details: classical nucleoside transporter inhibitors; no reference given; cited from earlier work

Structure (SMILES) | transport by ENT2 mRNA-injected vs water-injected oocytes (LC-MS/MS) [1] | IC50 [2] | ENT1 % uptake inhibition (Ado) [2] | IC50 [3] | ENT2 % uptake inhibition (Ado) ([3]; BA 100 μM) | IC50 [4] | ENT3 % uptake inhibition (Ado) ([4]; BA 100 μM) | other results
C[C@H](CCC(=O)O)[C@H]1CC[C@H]2[C@@H]3[C@H](O)C[C@@H]4C[C@H](O)CC[C@]4(C)[C@H]3CC[C@]12C [CDCA, chenodeoxycholic acid] | significant transport | 24.3 ± 7 µM | 69.12% | 22.9 ± 4.9 µM | 66.07% | 0.3 ± 0.1 µM | 77.0% | inhibition of guanosine transport mediated by ENT2 ([3]; BA 100 μM, 3H-guanosine 20 μM): not statistically significant
C[C@H](CCC(=O)NCC(=O)O)[C@H]1CC[C@H]2[C@@H]3[C@H](O)C[C@@H]4C[C@H](O)CC[C@]4(C)[C@H]3C[C@H](O)[C@]12C [GCA, glycocholic acid] | significant transport | 39.5 ± 8.5 µM | 35.05% | 16.7 ± 3.9 µM | 72.22% | 10.7 ± 4.6 µM | 68.0% | –
C[C@H](CCC(=O)O)[C@H]1CC[C@H]2[C@@H]3CC[C@@H]4C[C@H](O)CC[C@]4(C)[C@H]3CC[C@]12C [LCA] | – | 66.9 ± 15.4 µM | 32.59% | 18.4 ± 4.5 µM | 71.04% | 88.8 ± 27.4 µM | 71.2% | –
O=[N+]([O-])c1ccc(CSc2ncnc3c2ncn3C2OC(CO)C(O)C2O)cc1 (centres unmarked) [NBMPR, nitrobenzylthioinosine] | – | – | – | – | – | – | – | reduction of 3H-CA transport by ENT2 compared with uninhibited control [5]: 53.38%; Ki [6]: ~10 µM; Ki [7]: ~0.01 µM
C[C@H](CCC(=O)NCCS(=O)(=O)O)[C@H]1CC[C@H]2[C@@H]3[C@@H](O)C[C@@H]4C[C@H](O)CC[C@]4(C)[C@H]3CC[C@]12C [TUDCA, tauroursodeoxycholic acid] | – | 204 ± 63 µM | 42.72% | 4.9 ± 1.1 µM | 77% and 77.30% | 35.3 ± 16.4 µM | 62.6% | inhibition of guanosine transport activity of ENT3 ([4]; BA 100 μM, 3H-guanosine 20 μM): inhibited
C[C@H](CCC(=O)O)[C@H]1CC[C@H]2[C@@H]3[C@@H](O)[C@@H](O)[C@@H]4C[C@H](O)CC[C@]4(C)[C@H]3CC[C@]12C [beta-muricholic acid] | significant transport | – | – | – | – | – | – | –
COc1cc(C(=O)OCCCN2CCCN(CCCOC(=O)c3cc(OC)c(OC)c(OC)c3)CC2)cc(OC)c1OC [dilazep] | – | – | – | – | – | – | – | reduction of 3H-CA transport by ENT2 compared with uninhibited control [5]: 38.02%; Ki [6]: ~10 µM; Ki [7]: ~0.01 µM
OCCN(CCO)c1nc(N2CCCCC2)c2nc(N(CCO)CCO)nc(N3CCCCC3)c2n1 [dipyridamole] | – | – | – | – | – | – | – | reduction of 3H-CA transport by ENT2 compared with uninhibited control [5]: 34.57%; Ki [6]: ~10 µM; Ki [7]: ~0.01 µM
C[C@H](CCC(=O)O)[C@H]1CC[C@H]2[C@@H]3[C@H](O)[C@H](O)[C@@H]4C[C@H](O)CC[C@]4(C)[C@H]3CC[C@]12C [hyocholic acid] | significant transport | – | – | – | – | – | – | –
C[C@H](CCC(=O)NCCS(=O)(=O)O)[C@H]1CC[C@H]2[C@@H]3[C@@H](O)[C@@H](O)[C@@H]4C[C@H](O)CC[C@]4(C)[C@H]3CC[C@]12C [tauro-beta-muricholic acid] | significant transport | – | – | – | – | – | – | –
C[C@H](CCC(=O)O)[C@H]1CC[C@H]2[C@@H]3[C@@H](O)C[C@@H]4C[C@H](O)CC[C@]4(C)[C@H]3CC[C@]12C [ursodeoxycholic acid] | significant transport | – | – | – | – | – | – | –
